Data: patent US9839642B2, “Beta-tetrazolyl-propionic acids as metallo-beta-lactamase inhibitors” (priority 2014, dated 2017)
Like-named read-outs stand apart in the source and are kept apart here.

How the values were obtained:
[1] = test system: Klebsiella pneumoniae expressing VIM-1 (IHMA599644); assay: Antibiotic potentiation activity: synergistic concentration (MITC95) with imipenem, growth by OD600; type: cell-based
Outline: (§1)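 Colonies from overnight agar plates (35 °C) were suspended in saline and diluted 1:100 into 1.1× CAMHB. Inhibitor (final 200 μM to 0.195 μM) was combined with imipenem at 1 or 4 μg/ml, incubated 22–24 h at 35 °C, and absorbance read; MITC95 is the lowest inhibitor concentration giving 95% growth inhibition.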

[2] = test system: Serratia marcescens expressing IMP-1 (CL5741); assay: as above; type: cell-based
Outline: as §1

[3] = test system: Escherichia coli expressing NDM-1 (CLB30016); assay: as above; type: cell-based; settings: 95% inhibition of bacterial growth, strain CLB30016
Outline: as §1

[4] = test system: Escherichia coli expressing NDM-1 (CLB30005); assay: as above; type: cell-based
Outline: as §1

IMP-1 = IMP-1 (Serratia marcescens, UniProt P52699); assay: Enzyme activity: determination of IC50, fluorescence assay with CCF2-FA substrate; type: biochemical; settings: CCF2-FA 1.25 μM, 2 hours at 25° C., read-out: IMP1 IC50
Outline: (§2)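 Enzyme at 1 pM (NDM-1), 2 pM (IMP-1) or 30 pM (VIM-1) was incubated with inhibitor (20 μM to 0.00063 μM) and 1.25 μM CCF2-FA in 100 mM KH2PO4 pH 7, 0.005% Tween-20, 10 μM ZnSO4 for 2 hours at 25° C. Fluorescence was read at ex 405/em 460 nm; IC50 from 4-parameter fit.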

NDM-1 = NDM-1 (Klebsiella pneumoniae, UniProt C7C422); assay: as above; type: biochemical; settings: CCF2-FA 1.25 μM, 2 hours at 25° C., read-out: NDM1 IC50
Outline: as §2

VIM-1 = VIM-1 (Pseudomonas aeruginosa, UniProt A0A0F7KYQ8); assay: as above; type: biochemical; settings: CCF2-FA 1.25 μM, 2 hours at 25° C., read-out: VIM1 IC50
Outline: as §2

[5] = 95% inhibition of bacterial growth, strain IHMA599644
[6] = 95% inhibition of bacterial growth, strain CL5741
[7] = 95% inhibition of bacterial growth, strain CLB30005
[8] = K. pneumoniae IHMA599644 (VIM-1), 95% inhibition of growth
[9] = S. marcescens CL5741 (IMP-1), 95% inhibition of growth
[10] = E. coli CLB30005 (NDM-1), 95% inhibition of growth

Chain of NDM-1 (C7C422 29-270, looked up, species assumed): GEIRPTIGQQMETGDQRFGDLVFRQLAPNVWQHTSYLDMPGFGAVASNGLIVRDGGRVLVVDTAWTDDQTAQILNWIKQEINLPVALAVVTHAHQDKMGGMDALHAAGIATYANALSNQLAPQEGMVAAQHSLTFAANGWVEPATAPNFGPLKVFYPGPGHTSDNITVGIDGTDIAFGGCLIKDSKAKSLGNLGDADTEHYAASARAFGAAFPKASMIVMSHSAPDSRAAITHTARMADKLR
Chain of IMP-1 (P52699 19-246, looked up, species assumed): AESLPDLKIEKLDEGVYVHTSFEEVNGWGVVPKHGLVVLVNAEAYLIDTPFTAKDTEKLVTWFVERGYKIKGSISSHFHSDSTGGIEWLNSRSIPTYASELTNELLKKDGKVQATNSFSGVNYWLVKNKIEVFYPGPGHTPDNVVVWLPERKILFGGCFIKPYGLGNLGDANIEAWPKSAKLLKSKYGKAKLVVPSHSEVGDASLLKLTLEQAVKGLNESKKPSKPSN

SMILES | VIM1 KP599644 MITC95 [1, 5] | IMP1 SM5741 MITC95 [2, 6] | NDM1 EC30016 MITC95 [3] | NDM1 EC30005 MITC95 [4, 7] | IC50 (IMP-1; enzyme 2 pM) | IC50 (NDM-1; enzyme 1 pM) | IC50 (VIM-1; enzyme 30 pM) | VIM1 KP599644 MITC95 [1, 8] | IMP1 SM5741 MITC95 [2, 9] | NDM1 EC30005 MITC95 [4, 10] | IC50 (IMP-1; IMP-1 enzyme 2 pM) | IC50 (NDM-1; NDM-1 enzyme 1 pM) | IC50 (VIM-1; VIM-1 enzyme 30 pM)
CCC[C@H](C(=O)O)[C@H](Cc1ccc(-c2ccc(N3CCNCC3)nc2)cc1)c1nn[nH]n1 [Example 199, (2S)-2-[(1S)-2-[4-(6-piperazin-1-ylpyridin-3-yl)phenyl]-1-(2H-tetrazol-5-yl)ethyl]pentanoic acid] | 31 µM | 17 µM | 9.4 µM | 4.7 µM | 110 nM | 48 nM | 7.4 nM | – | – | – | – | – | –
CCC[C@H](C(=O)O)[C@H](Cc1ccc(-c2ccc(CN)cc2)cc1)c1nn[nH]n1 [Example 209, (2S)-2-[(1S)-2-[4′-(aminomethyl)biphenyl-4-yl]-1-(2H-tetrazol-5-yl)ethyl]pentanoic acid] | 12.5 µM | 4.3 µM | 6.2 µM | 2.3 µM | 110 nM | 84 nM | 14 nM | – | – | – | – | – | –
CCC[C@H](C(=O)O)[C@H](Cc1ccc(-c2ccc3ncnn3c2)cc1)c1nnn[nH]1 [Example 241, (2S)-2-[(1S)-1-(1H-tetrazol-5-yl)-2-(4-[1,2,4]triazolo[1,5-a]pyridin-6-ylphenyl)ethyl]pentanoic acid] | 38 µM | 9.4 µM | – | 75 µM | 58 nM | 13 nM | 0.64 nM | – | – | – | – | – | –
CCC[C@H](C(=O)O)[C@H](Cc1ccc(-c2cnc(N(C)S(C)(=O)=O)nc2)cc1)c1nnn[nH]1 [Example 242, (2S)-2-[(1S)-2-(4-{2-[methyl(methyl-sulfonyl)amino]pyrimidin-5-yl}phenyl)-1-(1H-tetrazol-5-yl)ethyl]pentanoic acid] | 100 µM | 12.5 µM | – | 38 µM | 70 nM | 9.3 nM | 1.6 nM | – | – | – | – | – | –
CCC[C@H](C(=O)O)[C@H](Cc1ccc(C2=CCCN(C)C2)cc1)c1nnn[nH]1 [Example 243, (2S)-2-[(1S)-2-[4-(1-methyl-1,2,5,6-tetrahydropyridin-3-yl)phenyl]-1-(1H-tetrazol-5-yl)ethyl]pentanoic acid] | 25 µM | 25 µM | – | 18.8 µM | 500 nM | 400 nM | 3.8 nM | – | – | – | – | – | –
CCC[C@H](C(=O)O)[C@H](Cc1ccc(-c2cnc(C)c(C)n2)cc1)c1nnn[nH]1 [Example 244, (2S)-2-[(1S)-2-[4-(5,6-dimethylpyrazin-2-yl)phenyl]-1-(1H-tetrazol-5-yl)ethyl]pentanoic acid] | – | – | – | – | – | – | – | 38 µM | 25 µM | 9.4 µM | 250 nM | 66 nM | 4.8 nM
CCC[C@H](C(=O)O)[C@H](Cc1ccc(-c2ccc3c(c2)CNC3)cc1)c1nnn[nH]1 [Example 245, (2S)-2-[(1S)-2-[4-(2,3-dihydro-1H-isoindol-5-yl)phenyl]-1-(1H-tetrazol-5-yl)ethyl]pentanoic acid] | – | – | – | – | – | – | – | 25 µM | 6.2 µM | 9.4 µM | 85 nM | 57 nM | 3.7 nM
CCC[C@H](C(=O)O)[C@H](Cc1ccc(-c2ccc(-c3nnn[nH]3)cc2)cc1)c1nnn[nH]1 [Example 246, (2S)-2-{(1S)-1-(1H-tetrazol-5-yl)-2-[4′-(1H-tetrazol-5-yl)biphenyl-4-yl]ethyl}pentanoic acid] | – | – | – | – | – | – | – | 100 µM | 6.2 µM | 38 µM | 9.7 nM | 1.1 nM | 2.2 nM
CCC[C@H](C(=O)O)[C@H](Cc1ccc(-c2cnc3[nH]c(=O)[nH]c3c2)cc1)c1nnn[nH]1 [Example 247, (2S)-2-[(1S)-2-[4-(2-oxo-2,3-dihydro-1H-imidazo[4,5-b]pyridin-6-yl)phenyl]-1-(1H-tetrazol-5-yl)ethyl]pentanoic acid] | – | – | – | – | – | – | – | 100 µM | 16 µM | 31 µM | 92 nM | 13 nM | 0.64 nM
CCC[C@@H](C(=O)O)[C@H](Cc1ccc(-c2ccc3nnn(C)c3c2)cc1)c1nnn[nH]1 [Example 248, (2R)-2-[(1S)-2-[4-(1-methyl-1H-benzotriazol-6-yl)phenyl]-1-(1H-tetrazol-5-yl)ethyl]pentanoic acid] | – | – | – | – | – | – | – | >200 µM | >200 µM | 100 µM | 4700 nM | 700 nM | 230 nM
CCC[C@H](C(=O)O)[C@H](Cc1ccc(-c2cnc(CO)s2)cc1)c1nnn[nH]1 [Example 249] | – | – | – | – | – | – | – | 100 µM | >200 µM | 100 µM | 46 nM | 8.4 nM | 1.9 nM
CCC[C@H](C(=O)O)[C@H](Cc1ccc(-c2cnn(Cc3ccncc3)c2)cc1)c1nnn[nH]1 [Example 250, (2S)-2-[(1S)-2-{4-[1-(pyridin-4-ylmethyl)-1H-pyrazol-4-yl]phenyl}-1-(1H-tetrazol-5-yl)ethyl]pentanoic acid] | – | – | – | – | – | – | – | >200 µM | 200 µM | 25 µM | 82 nM | 9.6 nM | 7.5 nM
CCC[C@H](C(=O)O)[C@H](Cc1ccc(CN2CCN(C)CC2)cc1)c1nn[nH]n1 [Example 251, (2S)-2-[(1S)-2-{4-[(4-methylpiperazin-1-yl)methyl]phenyl}-1-(2H-tetrazol-5-yl)ethyl]pentanoic acid] | – | – | – | – | – | – | – | 75 µM | 38 µM | 8.3 µM | 1300 nM | 330 nM | 430 nM
CCC[C@H](C(=O)O)[C@H](Cc1ccc(COCCN2CCOCC2)cc1)c1nn[nH]n1 [Example 252, (2S)-2-[(1S)-2-{4-[(2-morpholin-4-ylethoxy)methyl]phenyl}-1-(2H-tetrazol-5-yl)ethyl]pentanoic acid] | – | – | – | – | – | – | – | 50 µM | 150 µM | 15 µM | 800 nM | 180 nM | 89 nM
CCC[C@H](C(=O)O)[C@H](Cc1ccc(CCN2CCCC2=O)cc1)c1nn[nH]n1 [Example 253, (2S)-2-[(1S)-2-{4-[2-(2-oxopyrrolidin-1-yl)ethyl]phenyl}-1-(2H-tetrazol-5-yl)ethyl]pentanoic acid] | – | – | – | – | – | – | – | 50 µM | 38 µM | 12.5 µM | 97 nM | 34 nM | 9.1 nM
CCC[C@H](C(=O)O)[C@H](Cc1ccc(CCCO)cc1)c1nn[nH]n1 [Example 254, (2S)-2-[(1S)-2-[4-(3-hydroxypropyl)phenyl]-1-(2H-tetrazol-5-yl)ethyl]pentanoic acid] | – | – | – | – | – | – | – | 25 µM | 31 µM | 5.2 µM | 180 nM | 37 nM | 9 nM
CCC[C@H](C(=O)O)[C@H](Cc1ccc(CCC(O)CO)cc1)c1nn[nH]n1 (stereo partly drawn) [Example 255, (2S)-2-[(1S)-2-[4-(3,4-dihydroxybutyl)phenyl]-1-(2H-tetrazol-5-yl)ethyl]pentanoic acid] | – | – | – | – | – | – | – | 50 µM | 18.8 µM | 10.4 µM | 190 nM | 44 nM | 12 nM
CCC[C@H](C(=O)O)[C@H](Cc1ccc(CCN2CCCCC2=O)cc1)c1nn[nH]n1 [Example 256, (2S)-2-[(1S)-2-{4-[2-(2-oxopiperidin-1-yl)ethyl]phenyl}-1-(2H-tetrazol-5-yl)ethyl]pentanoic acid] | – | – | – | – | – | – | – | 150 µM | 6.2 µM | 10.4 µM | 45 nM | 27 nM | 16 nM
CCC[C@H](C(=O)O)[C@H](Cc1ccc(C[C@@H]2CCCOC2)cc1)c1nn[nH]n1 [Example 257, (2S)-2-[(1S)-2-{4-[(3S)-tetrahydro-2H-pyran-3-ylmethyl]phenyl}-1-(2H-tetrazol-5-yl)ethyl]pentanoic acid] | – | – | – | – | – | – | – | 200 µM | 6.2 µM | 7.3 µM | 33 nM | 13 nM | 14 nM
